Several values for one entry are separate records, joined by “and”; a condition that tells them apart may be missing. Equal entries are not always repeated. Entries after “also recorded” stand apart in the source; their conditions may differ.
Key:
SIRT1 = SIRT1 protein expression, immunoblot and densitometry in 3T3 L1 preadipocytes; type: cell-based; conditions: 24 hours; for SIRT1 protein expression compared to control: 3T3 L1 cells, 60 μM each compound; for SIRT1 protein expression vs control: 3T3L1 preadipocytes, 100 μM
Method: (§1) 3T3L1 cells were purchased from American Type Culture Collection (Manassas, Va., USA) and cultured in DMEM media containing 4.5 g/l glucose supplemented with 10% fetal bovine serum (Hyclone), 2 mM L-glutamine (Gibco), 100 U/ml penicillin, and 100 μg/ml streptomycin (Gibco). The cells were cultured at 37° C. in a humidified atmosphere with 10% CO2.
(§2) The 3T3L1 cells were plated at 6×10^4 cells/well in 12 well plates and incubated at 37° C. in a humidified atmosphere with 10% CO2. The media was removed after 24 hours and the cells were treated with 60 μM GR24 individually and in combination with 60 resveratrol and 60 μM pinosylvin, and incubated for 24 hours at 37° C. in a humidified atmosphere with 10% CO2. The media was removed, cells were washed with PBS, and cell lysates were collected on ice. Proteins were extracted using RIPA buffer along with protease and phosphatase inhibitors. Lysates were centrifuged for 30 min at high speed; supernatant was collected and stored at […] until further analysis. The vehicle controls were 3T3 L1 cells without any treatment with drugs or other compounds. The drugs or compounds that were used in all the experiments were dissolved or diluted in dimethylsulfoxide (DMSO) as diluent. In all experiments, the controls were treated with the same volume of DMSO as was used to dissolve drugs or compounds in compound-treated cells to show and ensure that the actual change in protein expression in different treatments was due solely to the compounds or combination of compounds and not to the DMSO.
(§3) Protein concentrations were measured using a BCA (bicinchoninic acid) protein assay kit (Cat.#23225; Pierce, Rockford, Ill.). Twenty (20) μg/lane of total cellular protein samples containing NuPAGE LDS sample buffer (Invitrogen) and reducing agent were loaded into 4-12% NuPAGE Bis-Tris gels (Invitrogen), subjected to gel electrophoresis, and transferred to polyvinylidene fluoride membranes (Amersham). For SIRT1 proteins, membranes were blocked in 0.05% TBS-Tween with 3% milk for 1 hour, incubated overnight at +4° C. with SIRT1 primary antibodies (Cat.#07-131, Millipore). For phospho-AMPKα and AMPKα proteins, blocking was done for 1 hour in 0.1% TBS-Tween with 5% milk. The membranes were incubated overnight at +4° C. with phospho-AMPKα (Cat. #2535, Cell Signaling) and AMPKα (Cat.#2532, Cell Signaling) primary antibodies. Horseradish peroxidase-conjugated anti-rabbit antibodies (Cat. #NA934V GE Health Care, Amersham, U.K) were used as secondary antibodies. For α-tubulin (loading control), membranes were blocked in 0.05% PBS-Tween with 3% milk for 1 hour, incubated with α-tubulin (Cat.# B-5-1-2, Sigma) primary antibodies for 1 hour at room temperature and horseradish peroxidase-conjugated anti-mouse (Cat. # NA 931V GE Health Care, Amersham, U.K.) IgG antibodies were used as secondary antibodies.
(§4) The membranes were developed using chemiluminescence (ECL plus, GE Health Care), and images were captured in an Image Quant RT-ECL machine (version 1.0.1; GE Health Care). Densitometry and quantification of the bands were done by applying Quantity One software (Bio-Rad). The expression levels of the proteins were normalized to α-tubulin protein levels.
3T3L1 cells were purchased from American Type Culture Collection (Manassas, Va., USA) and cultured in DMEM media containing 4.5 g/l glucose supplemented with 10% fetal bovine serum (Hyclone), 2 mM L-glutamine (Gibco) and 100 U/ml penicillin, 100 μg/ml streptomycin (Gibco). The cells were cultured at 37° C. in a humidified atmosphere with 10% CO2. 3T3L1 preadipocytes were plated at 1×10^5 cells/well in 6 well plates and incubated at 37° C. in a humidified atmosphere with 10% CO2. […] In all experiments, the controls were treated with the same volume of DMSO as was used to dissolve compounds in compound-treated cells to show and ensure that the actual change in protein expression in different treatments was only due to the compounds DMSO. […]

AMPK = test: total AMPK expression, immunoblot in 3T3L1 preadipocytes; type: cell-based; conditions: 100 μM, 24 hours
Method: as §1
The 3T3L1 cells were plated at 6×10^4 cells/well in 12 well plates and incubated at 37° C. in a humidified atmosphere with 10% CO2. […] The media was removed, cells were washed with PBS, and cell lysates were collected on ice. Proteins were extracted using RIPA buffer along with protease and phosphatase inhibitors. Lysates were centrifuged for 30 min at high speed; supernatant was collected and stored at […] until further analysis. The vehicle controls were 3T3 L1 cells without any treatment with drugs or other compounds. The drugs or compounds that were used in all the experiments were dissolved or diluted in dimethylsulfoxide (DMSO) as diluent. […]
Protein concentrations were measured using a BCA (bicinchoninic acid) protein assay kit (Cat.#23225; Pierce, Rockford, Ill.). […]
The membranes were developed using chemiluminescence (ECL plus, GE Health Care), and images were captured in an Image Quant RT-ECL machine (version 1.0.1; GE Health Care). Densitometry and quantification of the bands were done by applying Quantity One software (Bio-Rad). […]

fungal cell = conditions: cited from earlier work
[1] = system: acetyl-CoA carboxylase (ACC); test: ACC expression, immunoblot in 3T3L1 preadipocytes; type: cell-based; conditions: 100 μM, 24 hours
phospho-AMPK = phospho-AMPK expression / AMPK activation, immunoblot in 3T3 L1 preadipocytes; type: cell-based; conditions: 24 hours; for phospho-AMPK expression compared to control: 60 μM; for phosphorylated AMPK expression vs control: 3T3L1 preadipocytes, 100 μM
Method: as §1
as §2, with “The media was removed after 24 hours and the cells were treated with 60 μM GR24 individually and in combination with 60 resveratrol and 60 μM pinosylvin, and incubated for 24 hours at 37° C. in a humidified atmosphere with 10% CO2.” left out
as §3, §4

With CC1=CC(O/C=C2/C(=O)O[C@@H]3c4ccccc4C[C@H]23)OC1=O (stereo partly shown) [GR24] the “SIRT1 protein expression compared to control” value (SIRT1) was “significant increase; also recorded: significantly (*P<0.05) increased”, the “SIRT1 protein expression compared to control” value (SIRT1; listed as GR 24) was “significant increase; also recorded: significantly (*P<0.05) increased” and the “SIRT1 expression compared with resveratrol” value (SIRT1; 3T3 L1 preadipocytes, 60 μM) was “greater than did resveratrol”. For the same compound, the “SIRT1 protein expression compared to control (100%)” value (SIRT1; 3T3 L1 preadipocytes, 60 μM, control = 100%) was 168% and 164% and 198% and 220% and 149%, the “SIRT1 protein expression vs control” value (SIRT1) was “significantly increased” and the “SIRT1 protein expression vs control” value (SIRT1; listed as GR 24) was “increase”. For the same compound, the “total AMPK expression vs control” value (AMPK) was “down-regulated”, the “ATP content of the fungal cell” value (fungal cell) was “rapid increase” and the NADH concentration (fungal cell) was “rapid increase”. The NADH dehydrogenase activity (fungal cell) was “rapid increase”, the “ACC protein expression vs control” value [1] was “down-regulated” and the “AMPK activation (pAMPK/AMPK/α-tubulin ratio) compared to control” value (phospho-AMPK; 3T3 L1 preadipocytes, 60 μM each compound) was “no activation”. The “phospho-AMPK expression compared to control” value (phospho-AMPK; 3T3 L1 preadipocytes) was “significant increase in expression with resveratrol but not with GR24; also recorded: did not”, the “phospho-AMPK expression compared to control” value (phospho-AMPK; 3T3 L1 preadipocytes, listed as GR 24) was “significant increase in expression with resveratrol but not with GR 24” and the “phosphorylated AMPK expression vs control” value (phospho-AMPK) was “down-regulated”. The “phosphorylated AMPK expression vs control” value (phospho-AMPK; listed as GR 24) was “down-regulation”.

From US20140142170A1, “COMPOSITION AND METHOD FOR INFLUENCING ENERGY METABOLISM AND TREATING METABOLIC AND OTHER DISORDERS” (SIRTUIN VALLEY OY, priority 2010, published 2014)
